Experimental data as given in ChEMBL document CHEMBL5143693, “Design and synthesis of endocannabinoid enzyme inhibitors for ocular indications” (Bioorg Med Chem Lett, 2022).
Activity calls are given as the source filed them. The calls are words filed in the database; no cut-off is given here.

Tests used:
[1] = Permeability of the compound by measuring lambda maximum incubated for 18 hrs by PAMPA method; format: ADME; conditions: read-out: permeability
[2] = target: T1, Fatty-acid amide hydrolase 1 (Homo sapiens, UniProt O00519); assay: Inhibition of FAAH (unknown origin) by fluorescence based method
T1 sequence (O00519 whole entry): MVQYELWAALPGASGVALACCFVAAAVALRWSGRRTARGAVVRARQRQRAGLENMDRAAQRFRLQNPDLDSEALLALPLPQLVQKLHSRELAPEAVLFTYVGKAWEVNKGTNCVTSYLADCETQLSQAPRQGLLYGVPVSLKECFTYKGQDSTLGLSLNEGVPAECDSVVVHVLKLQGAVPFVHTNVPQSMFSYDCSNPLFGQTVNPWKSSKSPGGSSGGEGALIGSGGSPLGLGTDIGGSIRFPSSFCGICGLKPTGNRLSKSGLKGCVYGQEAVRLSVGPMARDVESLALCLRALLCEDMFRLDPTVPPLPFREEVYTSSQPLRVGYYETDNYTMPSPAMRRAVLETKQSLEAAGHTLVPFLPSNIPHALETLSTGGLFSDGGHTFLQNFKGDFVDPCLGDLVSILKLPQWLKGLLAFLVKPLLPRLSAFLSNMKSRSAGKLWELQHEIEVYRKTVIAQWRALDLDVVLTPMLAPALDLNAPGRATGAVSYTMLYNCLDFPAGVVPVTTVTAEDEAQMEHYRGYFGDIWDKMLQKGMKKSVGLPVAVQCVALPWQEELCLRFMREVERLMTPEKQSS

Monoglyceride lipase = target: T2, Monoglyceride lipase (Homo sapiens, UniProt Q99685); assay: Inhibition of MAGL (unknown origin) by fluorescence based method
T2 sequence (Q99685 whole entry): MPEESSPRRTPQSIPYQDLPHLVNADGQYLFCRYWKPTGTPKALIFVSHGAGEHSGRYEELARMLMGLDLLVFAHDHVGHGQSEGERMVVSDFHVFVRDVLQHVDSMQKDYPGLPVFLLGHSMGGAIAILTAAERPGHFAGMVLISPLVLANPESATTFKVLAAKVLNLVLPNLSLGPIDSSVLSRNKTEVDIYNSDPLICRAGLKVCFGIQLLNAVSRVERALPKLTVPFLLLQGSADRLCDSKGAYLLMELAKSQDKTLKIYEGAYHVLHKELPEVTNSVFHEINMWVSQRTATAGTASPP

[3] = target: T3, Fatty-acid amide hydrolase 1 (Homo sapiens) (UniProt O00519); assay: Inhibition of recombinant human FAAH assessed as blockage of […] labelling at 100 uM by ABPP assay
T3 sequence (whole entry): T1 sequence (O00519 whole entry)

[4] = target: T4, Monoglyceride lipase (Rattus norvegicus) (UniProt Q8R431); assay: Inhibition of MAGL in rat eye homogenate assessed as blockage of […] labelling by ABPP assay; format: tissue-based
T4 sequence (whole entry): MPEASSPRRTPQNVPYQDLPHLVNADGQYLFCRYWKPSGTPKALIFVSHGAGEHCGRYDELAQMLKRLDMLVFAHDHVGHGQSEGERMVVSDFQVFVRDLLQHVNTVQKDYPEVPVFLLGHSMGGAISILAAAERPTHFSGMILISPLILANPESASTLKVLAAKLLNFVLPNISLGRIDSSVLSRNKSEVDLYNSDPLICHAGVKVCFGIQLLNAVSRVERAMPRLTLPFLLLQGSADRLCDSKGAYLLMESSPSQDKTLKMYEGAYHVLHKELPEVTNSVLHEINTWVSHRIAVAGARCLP

[5] = target: T5, Fatty-acid amide hydrolase 1 (Rattus norvegicus) (UniProt P97612); assay: Inhibition of FAAH in rat eye homogenate assessed as blockage of […] labelling by ABPP assay; format: tissue-based
T5 sequence (whole entry): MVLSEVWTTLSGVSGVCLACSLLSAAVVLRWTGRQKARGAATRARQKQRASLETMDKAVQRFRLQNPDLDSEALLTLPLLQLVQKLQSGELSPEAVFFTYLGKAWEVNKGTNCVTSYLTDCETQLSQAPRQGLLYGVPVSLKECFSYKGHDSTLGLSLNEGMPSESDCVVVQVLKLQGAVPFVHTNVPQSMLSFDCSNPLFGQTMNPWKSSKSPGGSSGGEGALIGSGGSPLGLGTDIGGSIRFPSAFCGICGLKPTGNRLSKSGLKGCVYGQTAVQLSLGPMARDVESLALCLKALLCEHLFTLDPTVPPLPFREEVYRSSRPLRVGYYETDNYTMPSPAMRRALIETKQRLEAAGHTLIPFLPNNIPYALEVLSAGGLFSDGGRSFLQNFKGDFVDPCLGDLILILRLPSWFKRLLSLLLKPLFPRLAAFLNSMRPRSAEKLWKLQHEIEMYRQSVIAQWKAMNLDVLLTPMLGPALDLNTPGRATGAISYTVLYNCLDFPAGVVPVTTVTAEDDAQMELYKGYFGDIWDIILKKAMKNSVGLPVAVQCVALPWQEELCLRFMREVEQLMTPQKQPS

[6] = target: T6, Fatty-acid amide hydrolase 1 (Mus musculus, UniProt O08914); assay: Inhibition of mouse brain FAAH by competitive ABPP assay; format: tissue-based
T6 sequence (O08914 whole entry): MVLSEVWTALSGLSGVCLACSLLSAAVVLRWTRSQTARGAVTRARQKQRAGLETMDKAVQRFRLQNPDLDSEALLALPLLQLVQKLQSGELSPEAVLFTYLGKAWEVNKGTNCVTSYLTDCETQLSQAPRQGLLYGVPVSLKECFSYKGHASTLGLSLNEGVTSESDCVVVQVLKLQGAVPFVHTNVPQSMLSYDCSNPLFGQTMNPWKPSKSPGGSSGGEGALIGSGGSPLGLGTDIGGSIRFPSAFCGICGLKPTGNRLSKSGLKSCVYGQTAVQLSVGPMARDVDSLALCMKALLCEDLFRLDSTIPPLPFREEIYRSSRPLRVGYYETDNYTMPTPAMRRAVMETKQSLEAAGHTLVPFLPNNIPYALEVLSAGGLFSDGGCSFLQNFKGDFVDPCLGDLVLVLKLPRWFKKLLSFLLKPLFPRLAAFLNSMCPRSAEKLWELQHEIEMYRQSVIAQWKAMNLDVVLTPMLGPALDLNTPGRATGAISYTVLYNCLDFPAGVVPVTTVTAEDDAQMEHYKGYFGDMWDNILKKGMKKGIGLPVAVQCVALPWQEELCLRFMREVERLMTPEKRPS

[7] = target: T7, Monoglyceride lipase (Homo sapiens) (UniProt Q99685); assay: Inhibition of recombinant human MAGL assessed as blockage of […] labelling at 100 uM by ABPP assay
T7 sequence (whole entry): T2 sequence (Q99685 whole entry)

Row | SMILES | Papp at 18 h [1] | IC50 [2] | IC50 (Monoglyceride lipase) | inhibition [3] | inhibition [4] | inhibition [5] | IC50 [6] | inhibition [7]
1 | O=C(Oc1ccc([N+](=O)[O-])cc1)N1CCN(S(=O)(=O)c2ccc(Oc3ccc(Cl)c(Cl)c3)cc2)CC1 | 0.31 ×10⁻⁶ cm/s | 317 nM |  |  |  |  |  | 
2 | O=C(Oc1ccc([N+](=O)[O-])cc1)N1CCN(S(=O)(=O)c2ccc(Oc3ccccc3)cc2)CC1 | 0.23 ×10⁻⁶ cm/s | 322 nM |  |  |  |  |  | 
3 | O=C(Oc1ccc([N+](=O)[O-])cc1)N1CCN(S(=O)(=O)c2ccc(-c3ccc(Cl)c(Cl)c3)cc2)CC1 | 0.28 ×10⁻⁶ cm/s | 382 nM |  |  |  |  |  | 
4 | O=C(Oc1ccc([N+](=O)[O-])cc1)N1CCN(S(=O)(=O)c2ccc3ccccc3c2)CC1 | 0.26 ×10⁻⁶ cm/s |  | 284 nM | 100% | Active | Active | 10.5 nM | 100%
5 | O=C(Oc1ccc([N+](=O)[O-])cc1)N1CCN(S(=O)(=O)c2ccc(C3CCCCC3)cc2)CC1 | 0.24 ×10⁻⁶ cm/s | 333 nM |  |  |  |  |  | 
6 | CCCCc1ccc(S(=O)(=O)N2CCN(C(=O)Oc3ccc([N+](=O)[O-])cc3)CC2)cc1 | 0.26 ×10⁻⁶ cm/s | 179 nM | 759 nM | Active | Active | Active |  | Active
7 | O=C(Oc1ccc([N+](=O)[O-])cc1)N1CCN(S(=O)(=O)c2ccc(Oc3ccc(Cl)cc3)cc2)CC1 | 0.24 ×10⁻⁶ cm/s | 153 nM | 2060 nM |  |  |  |  | 
8 | O=C(Oc1ccc([N+](=O)[O-])cc1)N1CCN(S(=O)(=O)c2ccc(Oc3ccccc3Cl)cc2)CC1 | 0.27 ×10⁻⁶ cm/s | 1150 nM |  |  |  |  |  | 
9 | O=C(Oc1ccc([N+](=O)[O-])cc1)N1CCN(S(=O)(=O)c2ccc(Oc3cccc(Cl)c3)cc2)CC1 | 0.23 ×10⁻⁶ cm/s | 380 nM |  |  |  |  |  | 
10 | O=C(Oc1ccc([N+](=O)[O-])cc1)N1CCN(S(=O)(=O)c2ccc(Oc3ncc(C(F)(F)F)cc3Cl)cc2)CC1 | 0.23 ×10⁻⁶ cm/s | 2950 nM |  |  |  |  |  | 
11 | O=C(Oc1ccc([N+](=O)[O-])cc1)N1CCN(S(=O)(=O)c2ccc(-c3ccccc3)cc2)CC1 | 0.19 ×10⁻⁶ cm/s | 437 nM |  |  |  |  |  | 
